From publication PMC11169275, “MAL2 reprograms lipid metabolism in intrahepatic cholangiocarcinoma via EGFR/SREBP-1 pathway based on single-cell RNA sequencing” (Cell Death & Disease, 2024)

Biological target: T1, MAL2 (GFP-MAL2) (Homo sapiens, UniProt Q969L2)
T1 construct: GFP fusion (GFP-MAL2) transiently expressed in HEK293T, diluted cell lysate, not purified
Test: microscale thermophoresis, GFP-MAL2 in HEK293T lysate
Assay type: binding
From the text: microscale thermophoresis, GFP-MAL2 in HEK293T lysate on MAL2 (GFP-MAL2) | only sarizotan could assemble with MAL2, with a dissociation constant (Kd)

T1 sequence (Q969L2 whole entry, the tested form may be a part): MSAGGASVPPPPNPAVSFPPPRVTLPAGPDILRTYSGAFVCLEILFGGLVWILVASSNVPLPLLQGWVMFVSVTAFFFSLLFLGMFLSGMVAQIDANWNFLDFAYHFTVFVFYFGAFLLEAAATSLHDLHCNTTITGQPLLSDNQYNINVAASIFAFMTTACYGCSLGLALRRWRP

With `Fc1ccc(-c2cncc(CNC[C@H]3CCc4ccccc4O3)c2)cc1` [sarizotan] the Kd was 36.1 µM.
